Read-outs that look alike come from different tables or passages of the source.
How the values were obtained:
[1] = 25° C.; cited from earlier work
[2] = Drug aerosol from percussively ignited heat package: purity and recovered yield by HPLC; format: physicochemical

CN1CCCC1c1cccnc1 (stereo not shown) [Nicotine, nicotine]
vapor pressure [1]: 0.0425 mmHg

Cc1nnc2n1-c1ccc(Cl)cc1C(c1ccccc1)=NC2 [alprazolam]
purity of the resultant aerosol [2]: 96.8% | recovered yield of aerosol [2]: 100%

CC(C)C(=O)OCC(=O)[C@@]12O[C@H](C3CCCCC3)O[C@@H]1C[C@H]1[C@@H]3CCC4=CC(=O)C=C[C@]4(C)[C@H]3[C@@H](O)C[C@@]12C [ciclesonide]
purity of the resultant aerosol ([2]; percussively ignited heat package, greater than 800° C., air flow 20 L/min, film 1.58 μm alprazolam, 6.33 μm pramipexole, 2.53 μm ciclesonide): 85.6%

From US20110253135A1, “METAL COORDINATION COMPLEXES OF VOLATILE DRUGS” (ALEXZA PHARMACEUTICALS, INC., priority 2008, published 2011)
